Measured values published in patent US20140219999A1, “TREATMENT OF COLON CANCER USING COMPLEMENT INHIBITORS” (priority 2011, published 2014).

Tests used:
[1] = tested on: B6.Apc^Min/+ model of intestinal neoplasia; assay: Polyp number and cross sectional polyp area in B6.Apc^Min/+ mice treated with C5aR antagonist on HFCoco diet; type: in vivo, mouse; settings: 1 mg/kg subcutaneously every other day for 30 days
Description: B6.Apc^Min/+ is a mouse model for intestinal neoplasia that carry a mutation in the Apc gene similar to that found in over 85% of sporadic colon cancer cases in humans. The APC mutation results in improper binding of β-catenin to the degradation complex and models the mutation observed in most sporadic human colon cancer tumors. B6.Apc^Min/+ mice develop 50-80 intestinal polyps in the small intestine by 120 days of age (Heijstek et al., 2005, Digest Surg. 22: 16-25). The APC amino acid sequence is 90% identical to that of the human APC.
B6.Apc^Min/+ and the CCSs (A2.Apc^Min/+, A7.Apc^Min/+, A9.Apc^Min/+, A17.Apc^Min/+, and A19.Apc^Min/+) along with the corresponding wild-type controls (B6, B6.A2, B6.A7, B6.A9, B6.A17 and B6.A19, respectively) were born and maintained on the standard 5010 diet until 30 days of age. Male mice were genotyped for the APC mutation using DNA that was purified from tail tissue taken at weaning. […] Body weight and length (to calculate BMI) as well as epidydimal fat pad mass were measured at the final time point.
Body weight and length were measured to calculate body mass index (BMI). Polyp number and polyp size from the small and large intestine were measured. […] The large intestine was excised and analyzed as one region (LI-1). […]

[2] = tested on: activated AKT (pS473), IKK (pS176) and NFκB (pS536); assay: Western analysis of intestinal tissue of treated B6.Apc^Min/+ mice (NFκB signaling); type: in vivo, mouse; settings: after 30 days on HFCoco diet and treatment; compared to control inhibitor
Description: To test the function of this reduction in polyp number in mice treated with the C5aR inhibitor, intestinal tissues were collected and used to extract RNA and protein for expression and western analysis, respectively.

Substance: Acetyl-Phe-[Orn-Pro-D-cyclohexylalanine-Trp-Arg] [PMX-53]
- cross sectional polyp area [1]: significantly reduced
- polyp number ([1]; compared to untreated mice or mice injected with control inhibitor): significant reduction
- activated AKT (pS473) protein level in intestine [2]: significant reduction
- activated IKK (pS176) protein level in intestine [2]: significant reduction
- activated NFκB (pS536) protein level in intestine [2]: significant reduction
